Test [1] deals with KRAS-WT (Homo sapiens, UniProt P01116). In words: SOS-catalyzed nucleotide exchange assay (Procedure A, TR-FRET), KRAS-WT. Type of test: biochemical. As to conditions: nucleotide exchange, read-out: KRAS WT GNE IC50. In outline: (§1)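 RAS (G12C carries C51S/C80L/C118S) loaded with Bodipy-GDP, complexed with Tb-streptavidin; cpd 60 min RT; + SOS/3 mM GTP. G12C 3/40 nM, WT 1/40, NRAS 1.25/40 nM RAS/SOS, 60 min; G12V 1.25/160 nM, 90 min. Normalized to DMSO and saturating inhibitor; 4PL fit.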
Sequence of KRAS-WT (P01116 with tags, fused parts or gaps isoform P01116-2): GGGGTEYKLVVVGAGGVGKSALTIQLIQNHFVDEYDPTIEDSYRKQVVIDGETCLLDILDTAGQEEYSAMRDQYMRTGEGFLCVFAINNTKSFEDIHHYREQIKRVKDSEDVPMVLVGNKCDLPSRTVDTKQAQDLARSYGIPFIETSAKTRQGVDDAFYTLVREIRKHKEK

The target of test [2] is KRAS-G12D (Homo sapiens, UniProt P01116, G12D). Kind of test: SOS-catalyzed nucleotide exchange assay (Procedure A, TR-FRET), KRAS-G12D. Particulars: nucleotide exchange, read-out: KRAS G12D GNE IC50. The class given is biochemical. In outline: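 Signal ratio (520/495 nm, excitation 340 nm) reports Bodipy-GDP retention on biotinylated RAS after SOS-catalyzed exchange with 3 mM GTP. SOS was 40 nM, except 160 nM for G12V. Room-temperature exchange lasted 60 min (90 min for G12V), following a 60 min compound preincubation.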
Sequence of KRAS-G12D (P01116 with tags, fused parts or gaps isoform P01116-2 G12D): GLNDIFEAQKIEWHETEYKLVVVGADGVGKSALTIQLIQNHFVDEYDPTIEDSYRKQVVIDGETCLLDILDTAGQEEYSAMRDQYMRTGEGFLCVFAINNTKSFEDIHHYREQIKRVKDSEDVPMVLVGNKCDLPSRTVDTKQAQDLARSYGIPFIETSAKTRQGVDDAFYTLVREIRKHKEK
Background: In TR-FRET formats the signal depends on donor and acceptor labels being close together.

Test [3] concerns the target KRAS-G12V (Homo sapiens, UniProt P01116, G12V). In words: SOS-catalyzed nucleotide exchange assay (Procedure A, TR-FRET), KRAS-G12V. Type of test: biochemical. Particulars: nucleotide exchange, read-out: KRAS G12V GNE IC50. In outline: as §1
In test [4] the test system is MKN-1 cells. In words: Cellular phospho-ERK assay, MKN-1 cells (amplified wild-type KRAS). Type of test: cell-based. As to conditions: Homo sapiens, amplified wild-type KRAS, 2 hours, read-out: MKN1 pERK IC50. The method in brief:
(§2)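 Inhibition of ERK phosphorylation was determined after treating attached cells with compound for 2 h; top concentration 30 μM, serial 1:3 dilution. Each well's p-ERK:total ERK ratio, read by SureFire Ultra, was fitted with a four-parameter model for IC50.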

The test system of test [5] is AsPC-1 cells. In words: Cellular phospho-ERK assay, AsPC-1 cells (homozygous KRAS-G12D). Type of test: cell-based. As to conditions: Homo sapiens, ASPC1, 2 h, KRAS-G12D, 2 hours, read-out: AsPC1 pERK IC50. The method in brief: as §2
In test [6] the test system is SW620 cells. In words: Cellular phospho-ERK assay, SW620 cells (homozygous KRAS-G12V). The class given is cell-based. As to conditions: Homo sapiens, SW-620, KRAS-G12V, 2 hours, read-out: SW620 pERK IC50. The method in brief: as §2

As usually defined, the IC50 is the concentration at which inhibition is half-maximal.

Sequence of KRAS-G12V (P01116 with tags, fused parts or gaps isoform P01116-2 G12V): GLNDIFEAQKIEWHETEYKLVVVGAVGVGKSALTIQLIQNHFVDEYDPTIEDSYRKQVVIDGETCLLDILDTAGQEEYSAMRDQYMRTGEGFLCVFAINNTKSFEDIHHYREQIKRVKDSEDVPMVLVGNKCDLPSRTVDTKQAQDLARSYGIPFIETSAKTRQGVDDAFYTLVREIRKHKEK

Consider `Cc1cc2[nH]ncc2c(-c2nccc3c2sc2nc(OC[C@@]45CCCN4C[C@H](F)C5)nc(N4CCOC[C@@](C)(O)C4)c23)c1[C@@H]1C[C@H]1C` (atropisomer, axis not shown; (aS)) [Ex-67, (S)-4-((R)-2-(((2R,7aS)-2-fluorotetrahydro-1H-pyrrolizin-7a(5H)-yl)methoxy)-8-(6-methyl-5-((1R,2R)-2-methylcyclopropyl)-1H-indazol-4-yl)pyrido[4′,3′:4,5]thieno [2,3-d]pyrimidin-4-yl)-6-methyl-1,4-oxazepan-6-o1], for which the IC50 in test [1] was 40 nM; in test [2], 11.9 nM; in test [3], 23.1 nM; in test [4], 186 nM; in test [5], 113 nM; in test [6], 323 nM.
Turning to `C[C@@]1(O)COCCN(c2nc(OC[C@@]34CCCN3C[C@H](F)C4)nc3sc4c(-c5c6c(cc7[nH]ncc57)CCC65CC5)nccc4c23)C1` [Ex-88, (6S)-4-(8-(6,7-dihydro-1H-spiro[cyclopenta[f]indazole-5,1′-cyclopropan]-4-yl)-2-(((2R,7aS)-2-fluorotetrahydro-1H-pyrrolizin-7a(5H)-yl)methoxy)pyrido[4′,3′:4,5]thi-eno[2,3-d]pyrimidin-4-yl)-6-methyl-1,4-oxazepan-6-ol], the IC50 was found to be 37.2 nM in test [1]; 18.5 nM in test [2]; 42.5 nM in test [3]; 122 nM in test [4]; 159 nM in test [5]; 36.1 nM in test [6].
As to `CCc1cc2[nH]ncc2c(-c2nccc3c2sc2nc(OC[C@@]45CCCN4C[C@H](F)C5)nc(N4CCOC[C@@](C)(O)C4)c23)c1C1CC1` [Ex-48, (6S)-4-(8-(5-cyclopropyl-6-ethyl-1H-indazol-4-yl)-2-(((2R,7aS)-2-fluorotetrahydro-1H-pyrrolizin-7a(5H)-yl)methoxy)pyrido[4′,3′:4,5]thi-eno[2,3-d]pyrimidin-4-yl)-6-methyl-1,4-oxazepan-6-ol], the IC50 in test [1] is 50.4 nM; in test [2] it was 18.2 nM; in test [3], 28.5 nM; in test [4] it was 123 nM; in test [5] it was 153 nM; in test [6], 106 nM.
On to `C[C@@]1(O)COCCN(c2nc(OC[C@@]34CCCN3C[C@H](F)C4)nc3sc4c(-c5c(-c6ccoc6)c(Cl)cc6[nH]ncc56)nccc4c23)C1` [Ex-71, (6S)-4-(8-(6-chloro-5-(furan-3-yl)-1H-indazol-4-yl)-2-(((2R,7aS)-2-fluorotetrahydro-1H-pyrrolizin-7a(5H)-yl)methoxy)pyrido[4′,3′:4,5]thi-eno[2,3-d]pyrimidin-4-yl)-6-methyl-1,4-oxazepan-6-ol], for which the IC50 was found to be 17.6 nM in test [1]; 4 nM in test [2]; 11.5 nM in test [3]; 50.2 nM in test [4]; 66.4 nM in test [5]; 150 nM in test [6].
In the case of `Cc1c(C(F)(F)F)c(-c2nccc3c2sc2nc(OC[C@@]45CCCN4C[C@H](F)C5)nc(N4CCOC[C@@](C)(O)C4)c23)c2cn[nH]c2c1F` [Ex-44, (6S)-4-(8-(7-fluoro-6-methyl-5-(trifluoromethyl)-1H-indazol-4-yl)-2-(((2R,7aS)-2-fluorotetrahydro-1H-pyrrolizin-7a(5H)-yl)methoxy)pyrido[4′,3′:4,5]thi-eno[2,3-d]pyrimidin-4-yl)-6-methyl-1,4-oxazepan-6-ol], the IC50 in test [1] was 281 nM; in test [2], 141 nM; in test [3] it was 242 nM; in test [4] it was 373 nM; in test [5], 452 nM; in test [6] it was 281 nM.
For the compound `C[C@@]1(O)COCCN(c2nc(OC[C@@]34CCCN3C[C@H](F)C4)nc3sc4c(-c5c6c(cc7[nH]ncc57)CC5CC65)nccc4c23)C1` (stereo partly drawn) [Ex-90, (6S)-4-(2-(((2R,7aS)-2-fluorotetrahydro-1H-pyrrolizin-7a(5H)-yl)methoxy)-8-(4b,5,5a,6-tetrahydro-1H-cyclopropa[4,5]cyclopen-ta[1,2-f]indazol-4-yl)pyrido[4′,3′:4,5]thieno [2,3-d]pyrimidin-4-yl)-6-methyl-1,4-oxazepan-6-ol], the IC50 in test [1] was 152 nM; in test [2] it was 48.8 nM; in test [3], 85 nM; in test [4], 174 nM; in test [5], 311 nM; in test [6] it was 193 nM.

Source of the values: patent US20260176289A1, “SMALL MOLECULE INHIBITORS OF KRAS PROTEINS” (Merck Sharp & Dohme LLC, priority 2022, published 2026).
